Laboratory results as given in the supplement of paper PMC10307832.

Tests used:
Test in all cases: relative viability (nuclei count vs DMSO), 5 days (fraction); higher = more cells survive
[1] = compound: C1CC(C2=C(C1)C3=C(N2)C=CC(=C3)Cl)C(=O)N [Selisistat] + Nc1ncn([C@H]2C[C@H](O)[C@@H](CO)O2)c(=O)n1 [Decitabine] (partner 2 µM)
Outline: (§1)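 Lung cancer cell lines, seeded in 1536-well plates, were treated the following day by pin tool with a single drug or with five library-drug doses (not always all listed) in √10 steps on top of a fixed anchor-drug dose. Cells were fixed and nuclei stained in one step after 5 days, and nuclei were counted. Relative viability is the nuclei count for treated wells divided by that for vehicle wells, reported as medians of duplicate plates.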

[2] = compound: C1CC(C2=C(C1)C3=C(N2)C=CC(=C3)Cl)C(=O)N [Selisistat] + N=C(N)NC(=N)NCCc1ccccc1 [Phenformin] (partner 250 µM)
Outline: as §1

[3] = compound: C1CC(C2=C(C1)C3=C(N2)C=CC(=C3)Cl)C(=O)N [Selisistat] + CC(=O)Nc1cccc(-n2c(=O)n(C3CC3)c(=O)c3c(Nc4ccc(I)cc4F)n(C)c(=O)c(C)c32)c1 [Trametinib] (partner 0.02 µM)
Outline: as §1

[4] = compound: c1ccc2c(CCNc3ccc(Nc4ccncc4)cc3)c[nH]c2c1 [Serdemetan] + CC1(C)CCC(c2ccc(Cl)cc2)=C(CN2CCN(c3ccc(C(=O)NS(=O)(=O)c4ccc(N[C@H](CCN5CCOCC5)CSc5ccccc5)c(S(=O)(=O)C(F)(F)F)c4)cc3)CC2)C1 [Navitoclax] (partner 0.5 µM)
Outline: as §1

Cell Line	relative viability ([1]; first compound 0.4 µM)	relative viability ([1]; first compound 1.265 µM)	relative viability ([1]; first compound 4 µM)	relative viability ([1]; first compound 12.65 µM)	relative viability ([1]; first compound 40 µM)	relative viability ([2]; first compound 0.4 µM)	relative viability ([2]; first compound 1.265 µM)	relative viability ([2]; first compound 4 µM)	relative viability ([2]; first compound 12.65 µM)	relative viability ([2]; first compound 40 µM)	relative viability ([3]; first compound 0.4 µM)	relative viability ([3]; first compound 1.265 µM)	relative viability ([3]; first compound 4 µM)	relative viability ([3]; first compound 12.65 µM)	relative viability ([3]; first compound 40 µM)	relative viability ([4]; first compound 0.04 µM)	relative viability ([4]; first compound 0.1265 µM)	relative viability ([4]; first compound 0.4 µM)	relative viability ([4]; first compound 1.265 µM)	relative viability ([4]; first compound 4 µM)
NCI-H522	0.768	0.662	0.664	0.617	0.647	0.695	0.61	0.469	0.61	0.687	0.651	0.653	0.745	0.751	0.589	–	–	–	–	–
HCC-15	0.695	0.739	–	0.737	0.79	0.515	0.524	–	0.44	0.501	0.453	0.433	–	0.37	0.468	0.755	0.729	0.624	0.56	0.504
A-427	0.578	0.575	–	0.655	0.637	0.261	0.383	0.266	0.255	0.327	0.842	0.801	–	0.776	0.775	0.967	0.971	0.882	0.724	0.615
NCI-H2228	–	–	–	–	–	0.301	0.271	0.205	0.295	0.307	0.666	0.362	0.564	0.537	0.372	0.878	0.782	0.86	0.34	0.199
NCI-H1734	0.562	0.436	0.45	0.556	0.455	0.442	0.377	0.324	0.382	0.356	0.714	0.674	0.656	0.694	0.718	0.68	–	0.202	0.108	0.188
PC-14	0.201	0.217	0.221	0.237	0.243	0.522	0.415	0.314	0.488	0.643	0.723	0.655	0.823	0.825	0.671	0.977	0.974	0.954	0.923	0.697
NCI-H1915	0.268	0.244	0.264	0.255	0.277	0.377	0.356	0.368	0.355	0.368	0.348	0.307	0.318	0.297	0.342	0.815	0.759	0.78	0.372	0.687
NCI-H1666	0.825	0.699	0.692	0.687	0.778	0.514	0.606	0.582	0.538	0.529	0.839	0.833	0.987	0.839	0.83	0.913	0.941	0.877	0.726	0.83
HCC-366	0.383	0.31	0.33	0.356	0.324	0.662	0.679	0.557	0.575	0.609	0.435	0.302	0.329	0.301	0.285	1.03	0.981	0.522	0.0806	0.0474
SK-MES-1	0.397	0.446	0.312	0.325	0.331	0.683	0.718	0.681	0.695	0.681	0.589	0.539	0.55	0.492	0.459	1.21	1.24	1.25	0.917	0.551
SW 1573	0.604	0.453	0.347	0.502	0.459	0.411	0.314	0.362	0.445	0.399	0.615	0.505	–	0.563	0.565	0.898	0.876	1.02	0.303	0.105
NCI-H661	0.592	0.521	0.428	0.46	0.442	0.27	0.263	0.282	0.286	0.251	0.522	0.541	0.442	0.502	0.45	–	–	–	–	–
PC-3 [JPC-3]	0.834	0.837	–	0.818	0.794	0.488	0.481	0.48	0.487	0.48	0.805	0.664	–	0.74	0.695	0.747	0.713	–	0.76	0.762
NCI-H1623	–	–	–	–	–	0.557	0.556	0.413	0.579	0.533	–	–	–	–	–	–	–	–	–	–
Calu-6	–	–	–	–	–	–	–	–	–	–	–	–	–	–	–	0.973	0.869	0.682	0.687	0.493
LC-2-ad	0.909	0.797	0.764	0.821	0.775	0.625	–	0.437	0.582	0.632	0.973	0.96	0.898	0.662	0.95	0.5	0.418	0.427	–	0.293
